Laboratory results: patent US10688082B2, “Aminopyrazine compounds with A2A antagonist properties” (Merck Sharp & Dohme Corp., priority 2015, dated 2020)

target: T1, human A2a receptor (Homo sapiens, UniProt P29274); experiment: Competition binding assay using Scintillation Proximity technology (A2a activity); settings: membranes from HEK293 cells expressing the human A2a receptor; 0.5 nM tritiated ligand; Cheng-Prusoff
T1 construct: purchased Perkin-Elmer RBHA2AM400UA; host or cells: HEK293 cells (membranes)
Protocol: Binding affinities of compounds of the invention for the human A2a receptor were determined in a competition binding assay using Scintillation Proximity technology. Thus, […] from HEK293 cells expressing the human A2a receptor were incubated with a compound of the invention at concentrations ranging from 3000 nM to 0.15 nM in a reaction mixture containing also 0.5 nM of a tritiated form of 5-amino-7-[2-phenethyl]-2-(furan-2-yl)-7H-pyrazolo[4,3-e][1,2,4]triazolo[1,5-c]pyrimidine (the tritiated compound) and 100 μg of wheat germ agglutin-coated yttrium silicate SPA beads for one hour at room temperature with agitation. The beads were then allowed to settle to the bottom of the wells for 1 hr, after which the membrane-associated radioactivity was determined by scintillation counting in a TopCount microplate reader. Ki values were determined using the Cheng-Prusoff equation.
HEK293 cells expressing the human, rat, dog or monkey adenosine 2a receptor (Purchased from Perkin-Elmer # RBHA2AM400UA).
The Tritiated compound was prepared according to published methods.
Wheat germ agglutinin-coated yttrium silicate SPA beads (GE Healthcare # RPNQ0023). Dilute to 25 mg/ml in assay buffer.
Assay Buffer was prepared using Dulbecco's calcium and magnesium free phosphate buffered saline+10 mM MgCl2
Adenosine deaminase from calf intestine, 10 mg/2 ml (Roche #10 102 105 001).
A2a antagonist standard (9-chloro-1-(2-furanyl)-[1,2,4]triazolo1,5-c]quinazolin-5-amine from Tocris Bioscience)
Make eight 1:3 serial dilutions in 100% DMSO from a 3 mM compound stock
Transfer 50 nl of compound into a 384-well OptiPlate (Perkin Elmer).
Typically, final concentrations of compound used in the assay ranged from 3000 nM to 0.152 nM.
Dilute a solution of the Tritiated compound to 1.25 nM in assay buffer. This is a 2.5× solution. The final concentration in the assay is 0.5 nM. Calculate the concentration by counting two 5 μl aliquots.
Use 0.25 ug of membrane/well. Dilute membranes to 9.7 μg/ml in assay buffer. Treat with 20 ug/ml adenosine deaminase (ADA) for 15 minutes at room temperature to degrade endogenous adenosine.
Use 100 μg/well wheat germ agglutinin-coated yttrium silicate SPA beads.
Mix ADA-treated membranes and SPA beads together for 30 min prior to assay.
To the Perkin-Elmer Optiplate-384 containing the compound titration add 20 μl of 2.5× solution of the Tritiated compound and 30 μl of the membrane-bead mixture. Incubate for one hour at room temperature with agitation.
Include total binding (assay buffer+1% DMSO) and non-specific binding (CGS15943, 1 μM) wells.
Allow the beads to settle for one hour.
A curve fitting program (i.e., Prism, Activity Base, Chemcart) is used to determine the EC50. The Ki value is calculated using the Cheng-Prusoff equation. K i=EC50/(1+(radioligand concentration/Kd))

T1 sequence (P29274 whole entry): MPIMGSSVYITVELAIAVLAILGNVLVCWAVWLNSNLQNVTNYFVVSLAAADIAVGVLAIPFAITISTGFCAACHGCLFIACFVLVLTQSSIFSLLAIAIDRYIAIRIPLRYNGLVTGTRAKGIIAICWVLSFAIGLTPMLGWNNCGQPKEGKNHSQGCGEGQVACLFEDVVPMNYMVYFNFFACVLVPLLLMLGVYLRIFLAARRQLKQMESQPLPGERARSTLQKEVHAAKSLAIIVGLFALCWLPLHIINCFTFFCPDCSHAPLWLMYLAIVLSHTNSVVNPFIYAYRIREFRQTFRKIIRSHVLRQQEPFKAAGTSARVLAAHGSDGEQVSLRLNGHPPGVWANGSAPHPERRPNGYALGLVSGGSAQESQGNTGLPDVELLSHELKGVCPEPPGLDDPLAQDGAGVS

| Compound | Ki [nM] |
| --- | --- |
| COc1cccc2c1nc(N)n1nc(-c3cnco3)cc21 [Ex-2, 7-methoxy-2-(oxazol-5-yl)pyrazolo[1,5-c]quinazolin-5-amine] | 20 |
| COCCOc1ccc(N2CCN(CCOc3cccc4c3nc(N)n3nc(-c5ccco5)cc43)CC2)cc1 [Ex-3, 2-(furan-2-yl)-7-(2-(4-(4-(2-methoxyethoxy)phenyl)piperazin-1-yl)ethoxy)pyrazolo[1,5-c]quinazolin-5-amine] | 677 |
| COc1cccc2c1nc(N)n1nc(Cc3ccc(F)cc3)cc21 [Ex-5, 2-(4-fluorobenzyl)-7-methoxypyrazolo[1,5-c]quinazolin-5-amine] | 12 |
| COc1cccc2c1nc(N)n1nc(Cc3ccc(F)cc3F)cc21 [Ex-6, 2-(2,4-difluorobenzyl)-7-methoxypyrazolo[1,5-c]quinazolin-5-amine] | 10 |
| COc1cccc2c1nc(N)n1nc(Cc3cccc4ccccc34)cc21 [Ex-7, 7-methoxy-2-(naphthalen-1-ylmethyl)pyrazolo[1,5-c]quinazolin-5-amine] | 16 |
| COc1cccc2c1nc(N)n1nc(Cc3ccc(N4CCCCC4)cc3)cc21 [Ex-8, 7-methoxy-2-(4-(piperidin-1-yl)benzyl)pyrazolo[1,5-c]quinazolin-5-amine] | 136 |
| COc1cccc2c1nc(N)n1nc(Cc3cccc4cccnc34)cc21 [Ex-9, 7-methoxy-2-(quinolin-8-ylmethyl)pyrazolo[1,5-c]quinazolin-5-amine] | 3 |
| COc1cccc2c1nc(N)n1nc(Cc3cncnc3)cc21 [Ex-10, 7-methoxy-2-(pyrimidin-5-ylmethyl)pyrazolo[1,5-c]quinazolin-5-amine] | 36 |
| COc1cccc2c1nc(N)n1nc(Cc3ccc(N(C)C)cc3)cc21 [Ex-11, 2-(4-(dimethylamino)benzyl)-7-methoxypyrazolo[1,5-c]quinazolin-5-amine] | 61 |
| COc1cccc2c1nc(N)n1nc(Cc3ccc(N4CCN(C)CC4)cc3)cc21 [Ex-12, 7-methoxy-2-(4-(4-methylpiperazin-1-yl)benzyl)pyrazolo[1,5-c]quinazolin-5-amine] | 316 |
| COc1cccc2c1nc(N)n1nc(Cc3csc(N4CCN(C)CC4)n3)cc21 [Ex-13, 7-methoxy-2-((2-(4-methylpiperazin-1-yl)thiazol-4-yl)methyl)pyrazolo[1,5-c]quinazolin-5-amine] | 373 |
| COc1cccc2c1nc(N)n1nc(Cc3ccnc4ccccc34)cc21 [Ex-14, 7-methoxy-2-(quinolin-4-ylmethyl)pyrazolo[1,5-c]quinazolin-5-amine] | 2 |
| COc1cccc2c1nc(N)n1nc(Cc3cccc4ncccc34)cc21 [Ex-15, 7-methoxy-2-(quinolin-5-ylmethyl)pyrazolo[1,5-c]quinazolin-5-amine] | 85 |
| COc1cccc2c1nc(N)n1nc(Cc3ccc4[nH]ncc4c3)cc21 [Ex-16, 2-((1H-indazol-5-yl)methyl)-7-methoxypyrazolo[1,5-c]quinazolin-5-amine] | 131 |
| COc1cccc2c1nc(N)n1nc(Cc3ccccc3C(F)(F)F)cc21 [Ex-17, 7-methoxy-2-(2-(trifluoromethyl)benzyl)pyrazolo[1,5-c]quinazolin-5-amine] | 17 |
| COc1cccc2c1nc(N)n1nc(Cc3ccccc3N3CCOCC3)cc21 [Ex-18, 7-methoxy-2-(2-morpholinobenzyl)pyrazolo[1,5-c]quinazolin-5-amine] | 3 |
| COc1cccc2c1nc(N)n1nc(Cc3ccccc3N3CCNCC3)cc21 [Ex-19, 7-methoxy-2-(2-(piperazin-1-yl)benzyl)pyrazolo[1,5-c]quinazolin-5-amine] | 67 |
| COc1cccc2c1nc(N)n1nc(Cc3cccnc3N3CCOCC3)cc21 [Ex-20, 7-methoxy-2-((2-morpholinopyridin-3-yl)methyl)pyrazolo[1,5-c]quinazolin-5-amine] | 15 |
| COc1cccc2c1nc(N)n1nc(Cc3ccccc3CN3CCOCC3)cc21 [Ex-21, 7-methoxy-2-(2-(morpholinomethyl)benzyl)pyrazolo[1,5-c]quinazolin-5-amine] | 51 |

| Compound | Ki [nM] |
| --- | --- |
| COc1cccc2c1nc(N)n1nc(Cc3ccc(N4CCOCC4)cc3)cc21 [Ex-22, 7-methoxy-2-(4-morpholinobenzyl)pyrazolo[1,5-c]quinazolin-5-amine] | 128 |
| COc1cccc2c1nc(N)n1nc(Cc3cccc(N4CCOCC4)c3)cc21 [Ex-23, 7-methoxy-2-(3-morpholinobenzyl)pyrazolo[1,5-c]quinazolin-5-amine] | 26 |
| COc1cccc2c1nc(N)n1nc(Cc3ccc(N4CCN(C(=O)OC(C)(C)C)CC4)cc3)cc21 [Ex-24, tert-butyl 4-(4-((5-amino-7-methoxypyrazolo[1,5-c]quinazolin-2-yl)methyl)phenyl)piperazine-1-carboxylate] | 224 |
| COc1cccc2c1nc(N)n1nc(Cc3ccc(N4CCNCC4)cc3)cc21 [Ex-25, 7-methoxy-2-(4-(piperazin-1-yl)benzyl)pyrazolo[1,5-c]quinazolin-5-amine] | 333 |
| CCN1CCN(c2ccccc2Cc2cc3c4cccc(OC)c4nc(N)n3n2)CC1 [Ex-26, 2-(2-(4-ethylpiperazin-1-yl)benzyl)-7-methoxypyrazolo[1,5-c]quinazolin-5-amine] | 120 |
| COc1cccc2c1nc(N)n1nc(Cc3ccccc3CN3CCC(C)(O)CC3)cc21 [Ex-27, 1-(2-((5-amino-7-methoxypyrazolo[1,5-c]quinazolin-2-yl)methyl)benzyl)-4-methylpiperidin-4-ol] | 18 |
| COc1cccc2c1nc(N)n1nc(Cc3ccccc3CN3CC(O)C3)cc21 [Ex-28, 1-(2-((5-amino-7-methoxypyrazolo[1,5-c]quinazolin-2-yl)methyl)benzyl)azetidin-3-ol] | 9 |
| COc1cccc2c1nc(N)n1nc(Cc3ccccc3CN3CCCC3)cc21 [Ex-29, 7-methoxy-2-(2-(pyrrolidin-1-ylmethyl)benzyl)pyrazolo[1,5-c]quinazolin-5-amine] | 17 |
| COc1cccc2c1nc(N)n1nc(Cc3ccccc3F)cc21 [Ex-30, 2-(2-fluorobenzyl)-7-methoxypyrazolo[1,5-c]quinazolin-5-amine] | 1 |
| COc1cccc2c1nc(N)n1nc(Cc3cccc(F)c3)cc21 [Ex-31, 2-(3-fluorobenzyl)-7-methoxypyrazolo[1,5-c]quinazolin-5-amine] | 2 |
| COc1ccccc1Cc1cc2c3cccc(OC)c3nc(N)n2n1 [Ex-32, 7-methoxy-2-(2-methoxybenzyl)pyrazolo[1,5-c]quinazolin-5-amine] | 1 |
| COc1ccc(Cc2cc3c4cccc(OC)c4nc(N)n3n2)cc1 [Ex-33, 7-methoxy-2-(4-methoxybenzyl)pyrazolo[1,5-c]quinazolin-5-amine] | 32 |
| COc1cccc(Cc2cc3c4cccc(OC)c4nc(N)n3n2)c1 [Ex-34, 7-methoxy-2-(3-methoxybenzyl)pyrazolo[1,5-c]quinazolin-5-amine] | 7 |
| COc1cccc2c1nc(N)n1nc(Cc3ccc(C(F)(F)F)cc3)cc21 [Ex-35, 7-methoxy-2-(4-(trifluoromethyl)benzyl)pyrazolo[1,5-c]quinazolin-5-amine] | 130 |
| COc1cccc2c1nc(N)n1nc(Cc3cccc(C(F)(F)F)c3)cc21 [Ex-36, 7-methoxy-2-(3-(trifluoromethyl)benzyl)pyrazolo[1,5-c]quinazolin-5-amine] | 12 |
| COc1cccc2c1nc(N)n1nc(Cc3cnn(C)c3)cc21 [Ex-37, 7-methoxy-2-((1-methyl-1H-pyrazol-4-yl)methyl)pyrazolo[1,5-c]quinazolin-5-amine] | 15 |
| COc1cccc2c1nc(N)n1nc(Cc3c(F)cccc3Cl)cc21 [Ex-38, 2-(2-chloro-6-fluorobenzyl)-7-methoxypyrazolo[1,5-c]quinazolin-5-amine] | 25 |
| COc1cccc2c1nc(N)n1nc(Cc3ccc(F)c(F)c3F)cc21 [Ex-39, 7-methoxy-2-(2,3,4-trifluorobenzyl)pyrazolo[1,5-c]quinazolin-5-amine] | 27 |
| COc1cccc2c1nc(N)n1nc(Cc3cccc(F)c3F)cc21 [Ex-40, 2-(2,3-difluorobenzyl)-7-methoxypyrazolo[1,5-c]quinazolin-5-amine] | 6 |

same assay, conditions: same protocol

| Compound | Ki [nM] |
| --- | --- |
| COc1cccc2c1nc(N)n1nc(Cc3ccccc3)cc21 [Ex-4, 2-benzyl-7-methoxypyrazolo[1,5-c]quinazolin-5-amine] | 9 |
